According to patent US20260207758A1, “NA[…]-BASED CONJUGATE FOR […] INTO B CELL AND T CELL AND USES THEREOF” (priority 2022, published 2026):

What was measured:
Assay type in all cases: cell-based
[1] = test system: T cells (primary CD8+ cytotoxic T cells); assay: Binding of Cy5.5-labeled targeting peptide, flow cytometry; details: Cy5.5-labeled peptide
Description: (§1) A B cell/T cell targeting peptide (BTBP, SEQ ID NO: 17) was labeled with Cy5.5, and B cells (primary CD19+ B cells, PCS-800-018, ATCC) and T cells (primary CD8+ cytotoxic T cells, PCS-800-017, ATCC) were treated with 100 μM of the peptide for 1 hour. Then, the cells were fixed with 4% neutral formalin solution and measured using a confocal scanning microscope (LSM980 with Airyscan2, Carl Zeiss). […] Therefore, it was confirmed that BTBP effectively targeted both the B cells and the T cells.
(§2) In addition, the cells were washed three times with DPBS containing 5% FBS, and cells bound with Cy5.5-labeled BTBP were analyzed using flow cytometry (FIG. 7). As a result, it could be confirmed that the peptide of SEQ ID NO: 17 bound to B cells and T cells.

[2] = test system: B cells (primary CD19+ B cells); assay: as above; details: Cy5.5-labeled peptide
Description: as §1, §2

[3] = test system: T cells (primary CD8+ cytotoxic T cells); assay: Binding of Cy5.5-labeled targeting peptide, confocal microscopy; details: 100 μM Cy5.5-labeled peptide, 1 hour
Description: as §1

[4] = test system: B cells (primary CD19+ B cells); assay: as above; details: 100 μM Cy5.5-labeled peptide, 1 hour
Description: as §1

HTHGAARVPDHR [BTBP]
binding to cells by flow cytometry [1]: bound | binding to cells by flow cytometry [2]: bound | fluorescence intensity in cell membranes [3]: significantly increased | fluorescence intensity in cell membranes [4]: significantly increased
